Test results from ChEMBL document CHEMBL1201862, “PubChem BioAssay data set” (2004).
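Exposure lasted 48 hours, with cells grown in 96-well plates and compounds tested at five concentrations. GI50 = concentration required for 50% inhibition of growth.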 The source made the active and inactive calls. No stated cut-off is given here; in the data, active = GI50 up to about 1.1 µM and inactive = higher.

Legend:
Test in all cases: NCI-60 cell line screen, 48 h
DLD-1 = tested on: DLD-1
LXFL 529 = tested on: LXFL 529
SNB-78 = tested on: SNB-78
XF498 = tested on: XF498
HOP-18 = tested on: HOP-18
DMS-114 = tested on: DMS-114
DMS-273 = tested on: DMS-273
BT-549 = tested on: BT-549

## COc1cc(/C=C2/C(=O)N(C(=O)c3ccc(Cl)cc3)N=C2C)cc(OC)c1OC
DLD-1
  GI50: > 100 µM (inactive)
LXFL 529
  GI50: > 100 µM (inactive)
SNB-78
  GI50: > 100 µM (inactive)
XF498
  GI50: > 100 µM (inactive)

## CC1=CC2=C(C)C3(CC3)[C@@](C)(O)C(=O)C2=C1
HOP-18
  GI50: 0.27 µM (active)
DLD-1
  GI50: 0.276 µM (active)
DMS-114
  GI50: 0.139 µM (active)
LXFL 529
  GI50: 0.223 µM (active)
DMS-273
  GI50: 0.189 µM (active)
SNB-78
  GI50: 0.274 µM (active)
XF498
  GI50: 0.17 µM (active)

## Sc1nc2c(c(-c3nc(S)nc4c3CCCCCCCCCC4)n1)CCCCCCCCCC2
BT-549
  GI50: > 100 µM (inactive)

## O=C1CCC(NC(=O)c2ccccc2)C(=O)N1 (stereo unspecified)
BT-549
  GI50: > 100 µM (inactive)

## CN(C)CCNC(=O)c1cccc2ccc(-c3ccc(Br)cc3)nc12
HOP-18
  GI50: 1.91 µM (inactive)
DLD-1
  GI50: 2.59 µM (inactive)
DMS-114
  GI50: 2.61 µM (inactive)
DMS-273
  GI50: 1.16 µM (inactive)
SNB-78
  GI50: 8.87 µM (inactive)
XF498
  GI50: 2.16 µM (inactive)

## N#Cc1c(N)sc2c1-c1ccccc1OC2
BT-549
  GI50: 41 µM (inactive)

## C/C(=N\NC(=S)N1CCN(C2CCCCCC2)CC1)c1ccccn1
BT-549
  GI50: 1.27 µM (inactive)
HOP-18
  GI50: 2.06 µM (inactive)
DLD-1
  GI50: 0.01 µM (active)
DMS-114
  GI50: 0.01 µM (active)
LXFL 529
  GI50: 0.001 µM (active)
DMS-273
  GI50: 0.01 µM (active)
SNB-78
  GI50: 2.78 µM (inactive)

## Cc1c(-c2ccccc2)[nH]c2cc(Cl)ccc2c1=O
BT-549
  GI50: > 100 µM (inactive)

## CN1C(C)(C)CC(=O)C(Br)C1(C)C (stereo unspecified)
BT-549
  GI50: > 100 µM (inactive)

## CCN(CC)C(=O)CCN1CC1
BT-549
  GI50: > 10 µM (inactive)

## O=C1OC2C(O)COC2(O)C1(O)Cc1c[nH]c2ccccc12.O=C1OC2C(O)COC2(OCc2c[nH]c3ccccc23)C1O (stereo unspecified)
HOP-18
  GI50: > 100 µM (inactive)
DLD-1
  GI50: > 100 µM (inactive)
DMS-114
  GI50: > 100 µM (inactive)
LXFL 529
  GI50: > 100 µM (inactive)
DMS-273
  GI50: > 100 µM (inactive)
SNB-78
  GI50: > 100 µM (inactive)
XF498
  GI50: > 100 µM (inactive)

## COC(O)C(=O)c1c2c(cc3c1CCC3)CCCC2 (stereo unspecified)
BT-549
  GI50: 2.39 µM (inactive)

## Cn1c2ccc(C3=NCCN3)cc2c2cc(C3=NCCN3)ccc21
BT-549
  GI50: > 100 µM (inactive)

## c1cc2c(s1)-c1sccc1C21OCCO1
BT-549
  GI50: 50.5 µM (inactive)

## Cc1nc2ccccc2n1Cc1nnc2n1N=C(c1ccccc1)CS2
BT-549
  GI50: 32.1 µM (inactive)

## NC12Oc3cc(O)cc(O)c3C1(c1ccc(Cl)cc1)c1c(O)cc(O)cc1O2 (stereo unspecified)
BT-549
  GI50: > 100 µM (inactive)

## COc1ccc2nc3c([N+](=O)[O-])ccc4c3c(c2c1)N=CN4CCCN(C)C
BT-549
  GI50: 8.22 µM (inactive)

## Cc1nc2c(s/c(=N\N)n2-c2ccccc2)c(=O)[nH]1
DLD-1
  GI50: > 100 µM (inactive)
DMS-114
  GI50: > 100 µM (inactive)
LXFL 529
  GI50: > 100 µM (inactive)
DMS-273
  GI50: > 100 µM (inactive)
SNB-78
  GI50: > 100 µM (inactive)
XF498
  GI50: > 100 µM (inactive)

## COc1ccc(Nc2nc(N)c(C(=O)c3cccs3)s2)cc1
BT-549
  GI50: 23.3 µM (inactive)

## CCCN1CN(C(C(=O)N[C@@H]2C(=O)N3C(C(=O)O)=C(C)CSC23)c2ccccc2)CSC1=S (stereo partly specified)
HOP-18
  GI50: > 100 µM (inactive)
DLD-1
  GI50: > 100 µM (inactive)
LXFL 529
  GI50: > 100 µM (inactive)
DMS-273
  GI50: > 100 µM (inactive)
SNB-78
  GI50: > 100 µM (inactive)

## Oc1cc(Cl)cc2cccnc12
BT-549
  GI50: 3.89 µM (inactive)

## CSC1=Nc2ccccc2-c2nc3ccccc3cc2C1
BT-549
  GI50: > 100 µM (inactive)

## Cc1ccc(CN2CCN(Cc3ccc(C)o3)C(C)C2)o1 (stereo unspecified)
BT-549
  GI50: > 100 µM (inactive)

## N#Cc1c(-c2ccc(Cl)cc2)cc(-c2nc3ccccc3[nH]2)nc1N
BT-549
  GI50: 14.4 µM (inactive)

## COc1ccc(C2C=C(c3ccc(C)cc3)N(c3ccc(OC)cc3[N+](=O)[O-])C3C(=O)OC(=O)C23)c(OC)c1 (stereo unspecified)
BT-549
  GI50: 53.3 µM (inactive)

## COc1cc([N+](=O)[O-])ccc1NC1=CC(=O)CCC1
BT-549
  GI50: > 100 µM (inactive)

## Cc1cc(C)n(C(=O)C(C)Sc2nnc(SC(C)C(=O)n3nc(C)cc3C)s2)n1 (stereo unspecified)
BT-549
  GI50: > 100 µM (inactive)

## C=C1C(=O)O[C@H]2C/C(C=O)=C\[C@H]3O[C@H]3/C(COC(=O)C(C)C)=C/CC12 (stereo partly specified)
BT-549
  GI50: 12.2 µM (inactive)

## O=[N+]([O-])c1ccc(-c2cn(-c3ccc(Cl)cc3)cn2)cc1
BT-549
  GI50: 59.2 µM (inactive)

## COCC1OC(OC2C3=C(C(C)C)CCC3(C)/C=C3\C(CCC3(O)COC)C(C)C2O)C(O)C2OC3OC12OC3(C)C1CO1 (stereo unspecified)
BT-549
  GI50: 16.6 µM (inactive)

## C=C1CC(C)(COc2ccc3ccc(=O)oc3c2)OC1=O (stereo unspecified)
BT-549
  GI50: 1.02 µM (active)

## O=c1c2ccccc2nc(-c2ccccc2)n1NC(=S)Nc1ccccc1
HOP-18
  GI50: > 100 µM (inactive)
DLD-1
  GI50: > 100 µM (inactive)
DMS-114
  GI50: 14.3 µM (inactive)
LXFL 529
  GI50: 81.8 µM (inactive)
DMS-273
  GI50: > 100 µM (inactive)

## CC(=O)O[C@H]1CC[C@H]2[C@@H]3CCC4=C/C(=N/OCCN(C)C)CC[C@]4(C)[C@H]3CC[C@]12C
BT-549
  GI50: 12.8 µM (inactive)

## CC1SC2=NC3=C(c4ccccc4C3=O)C(c3ccc(F)cc3)N2C1=O (stereo unspecified)
DLD-1
  GI50: > 100 µM (inactive)
DMS-114
  GI50: 95.7 µM (inactive)
LXFL 529
  GI50: 86.3 µM (inactive)
DMS-273
  GI50: > 100 µM (inactive)
XF498
  GI50: 89.7 µM (inactive)

## Cn1c(CO)ccc1-c1ccc(-c2ccc(CO)[se]2)[se]1
BT-549
  GI50: 11.1 µM (inactive)

## Cn1c(=O)n(C2(C)C[Se]C2)c2ccccc21
DLD-1
  GI50: > 100 µM (inactive)
LXFL 529
  GI50: > 100 µM (inactive)
DMS-273
  GI50: > 100 µM (inactive)
SNB-78
  GI50: > 100 µM (inactive)

## CC(C)CC(C(N)=O)C(=O)NC(Cc1ccccc1)NC(=O)CNC(=O)C(C)NC(=O)C(N)Cc1ccc(O)cc1 (stereo unspecified)
BT-549
  GI50: > 100 µM (inactive)

## O=C1CCc2ccc3c(c21)CC1(Cc2ccccc2C1)C3
BT-549
  GI50: 10 µM (inactive)

## O=S(=O)(Cc1nc2ccccc2s1)c1nc2ccccc2s1
BT-549
  GI50: 16.5 µM (inactive)

## C=C1C(=O)O[C@@]23C1CC[C@@H](C)C2CC[C@@]1(C)OC31 (stereo partly specified)
BT-549
  GI50: 7.71 µM (inactive)

## CC(=O)OC(C)(C)CCC(=O)[C@](C)(O)[C@H]1[C@H](O)C[C@@]2(C)[C@@H]3CC=C4C(C)=C(OC5OC(CO)C(O)C(O)C5O)C(=O)C[C@@H]4[C@]3(C)C(=O)C[C@]12C (stereo partly specified)
BT-549
  GI50: > 100 µM (inactive)

## CC(=O)c1ccc(NCN2C(=O)c3ccccc3C2=O)cc1
BT-549
  GI50: > 100 µM (inactive)

## CCOC(=O)C1C(=O)C=C(c2cc(C)ccc2O)CC1c1cccc(Cl)c1 (stereo unspecified)
BT-549
  GI50: 44.6 µM (inactive)

## Nc1ccccc1[S+]([O-])c1ccccc1 (stereo unspecified)
HOP-18
  GI50: > 100 µM (inactive)
DMS-114
  GI50: > 100 µM (inactive)
LXFL 529
  GI50: > 100 µM (inactive)
DMS-273
  GI50: > 100 µM (inactive)
XF498
  GI50: > 100 µM (inactive)

## COc1cc2c(cc1OCCCC(=O)Nc1cc(C(=O)Nc3cc(C(=O)Nc4cc(C(=O)NCCCN(C)C)n(C)n4)n(C)c3)n(C)c1)N=CC1CCCN1C2=O (stereo unspecified)
BT-549
  GI50: 22.1 µM (inactive)

## O=C(O)NC(c1ccccc1)C(NC(=O)c1ccccc1)c1ccccc1 (stereo unspecified)
HOP-18
  GI50: > 100 µM (inactive)
DLD-1
  GI50: > 100 µM (inactive)
DMS-114
  GI50: > 100 µM (inactive)
SNB-78
  GI50: > 100 µM (inactive)
XF498
  GI50: > 100 µM (inactive)

## O=C1CC(Sc2nc3ccc(I)cc3c(=O)n2Cc2ccccc2)C(=O)NN1 (stereo unspecified)
BT-549
  GI50: 15.7 µM (inactive)

## N#C/C(=C\c1cc(F)cc(F)c1)c1ccccn1
BT-549
  GI50: 30.1 µM (inactive)

## C=C[C@]1(C)CC(O)C2C(=C)C(=O)OC2[C@H]1C(=C)C=O (stereo partly specified)
BT-549
  GI50: 3.27 µM (inactive)
HOP-18
  GI50: 5.41 µM (inactive)
DLD-1
  GI50: 2.08 µM (inactive)
DMS-114
  GI50: 5.73 µM (inactive)
LXFL 529
  GI50: 1.64 µM (inactive)
SNB-78
  GI50: 3.56 µM (inactive)

## NS(=O)(=O)c1ccc(-n2c(-c3cccs3)nc3ccc(I)cc3c2=O)cc1
BT-549
  GI50: 16.3 µM (inactive)

## O=C1c2cccnc2-c2nccc3c2c1nc1ccccc13 [ASCIDIDEMIN]
BT-549
  GI50: 0.169 µM (active)

## CC1CC(C)(O)CC(C(O)CC2CC(=O)NC(=O)C2)C1=O (stereo unspecified) [RESACTIN A]
BT-549
  GI50: 0.113 µM (active)
